The NIST ThermoML archive (doi:10.1016/j.jct.2016.03.029)

Experiments:
[1] = refractive index (Na D-line) (dimensionless); xn = mol fraction of the nth substance listed; settings: 100 kPa, Liquid, Standard Abbe refractometry
[2] = xn = mol fraction of the nth substance listed; settings: 100 kPa, Liquid; for speed of sound: Frequency=3 MHz, Sing-around technique in a fixed-path interferometer; for mass density: Vibrating tube method

CCCC[n+]1ccn(C)c1.O=S(=O)([N-]S(=O)(=O)C(F)(F)F)C(F)(F)F + CN1CCCC1=O
Settings	mass density, [2] [kg/m3]	refractive index, [1]	speed of sound, [2] [m/s]
298.15 K, x1 = 0.1051	1135.14	1.45767	1448.1
298.15 K, x1 = 0.2088	1209.84	1.45014	1385.2
298.15 K, x1 = 0.2926	1255.56	1.44539	1347.3
298.15 K, x1 = 0.3807	1293.95	1.44129	1317
298.15 K, x1 = 0.5019	1335.52	1.4368	1287.5
298.15 K, x1 = 0.5925	1360.41	1.43414	1271
298.15 K, x1 = 0.6982	1384.58	1.43169	1255.8
298.15 K, x1 = 0.7862	1401.58	1.42999	1245.6
298.15 K, x1 = 0.8895	1418.59	1.4283	1236.2
298.15 K, x1 = 1	1433.72	1.42671	1227.9
303.15 K, x1 = 0.1051	1130.6	1.45571	1430.8
303.15 K, x1 = 0.2088	1205.24	1.4483	1369.4
303.15 K, x1 = 0.2926	1250.89	1.44359	1332.5
303.15 K, x1 = 0.3807	1289.25	1.43954	1303.1
303.15 K, x1 = 0.5019	1330.79	1.4351	1274.3
303.15 K, x1 = 0.5925	1355.69	1.43244	1258.2
303.15 K, x1 = 0.6982	1379.86	1.43006	1243.5
303.15 K, x1 = 0.7862	1396.85	1.42842	1233.5
303.15 K, x1 = 0.8895	1413.85	1.42678	1224.4
303.15 K, x1 = 1	1428.92	1.42522	1216.8
308.15 K, x1 = 0.1051	1126.04	1.45375	1413.4
308.15 K, x1 = 0.2088	1200.63	1.44645	1353.5
308.15 K, x1 = 0.2926	1246.22	1.44178	1317.8
308.15 K, x1 = 0.3807	1284.55	1.43777	1289.2
308.15 K, x1 = 0.5019	1326.08	1.43337	1261.2
308.15 K, x1 = 0.5925	1350.96	1.43074	1245.5
308.15 K, x1 = 0.6982	1375.14	1.42842	1231.1
308.15 K, x1 = 0.7862	1392.14	1.42683	1221.5
308.15 K, x1 = 0.8895	1409.13	1.42524	1212.7
308.15 K, x1 = 1	1424.13	1.42373	1205.8
313.15 K, x1 = 0.1051	1121.51	1.45177	1396.4
313.15 K, x1 = 0.2088	1196.02	1.44455	1337.9
313.15 K, x1 = 0.2926	1241.59	1.43994	1303.1
313.15 K, x1 = 0.3807	1279.89	1.43596	1275.6
313.15 K, x1 = 0.5019	1321.38	1.43161	1248.3
313.15 K, x1 = 0.5925	1346.26	1.42904	1232.9
313.15 K, x1 = 0.6982	1370.44	1.42676	1218.9
313.15 K, x1 = 0.7862	1387.44	1.42522	1209.5
313.15 K, x1 = 0.8895	1404.42	1.42368	1201.2
313.15 K, x1 = 1	1419.36	1.42225	1195
318.15 K, x1 = 0.1051	1116.95	1.44978	1379.1
318.15 K, x1 = 0.2088	1191.41	1.44265	1322.3
318.15 K, x1 = 0.2926	1236.95	1.43809	1288.7
318.15 K, x1 = 0.3807	1275.22	1.43414	1262.1
318.15 K, x1 = 0.5019	1316.7	1.42983	1235.4
318.15 K, x1 = 0.5925	1341.57	1.42733	1220.3
318.15 K, x1 = 0.6982	1365.75	1.42509	1206.6
318.15 K, x1 = 0.7862	1382.75	1.42359	1197.5
318.15 K, x1 = 0.8895	1399.75	1.4221	1189.5
318.15 K, x1 = 1	1414.61	1.42076	1184.2
323.15 K, x1 = 0.1051	1112.42	1.44778	1361.8
323.15 K, x1 = 0.2088	1186.82	1.4407	1306.6
323.15 K, x1 = 0.2926	1232.32	1.43621	1274.3
323.15 K, x1 = 0.3807	1270.56	1.43228	1248.4
323.15 K, x1 = 0.5019	1312.04	1.42802	1222.5
323.15 K, x1 = 0.5925	1336.92	1.42562	1207.8
323.15 K, x1 = 0.6982	1361.1	1.42341	1194.4
323.15 K, x1 = 0.7862	1378.1	1.42193	1185.6
323.15 K, x1 = 0.8895	1395.1	1.42051	1177.9
323.15 K, x1 = 1	1409.88	1.41923	1173.6
